pIC50: −log10 of the molar value.

For the experiment, the system named is T1, μ-calpain.
T1 construct: μ-calpain (derived from human red blood cells; available from Cosmo Bio Co. Ltd.); purchased Cosmo Bio Co. Ltd; host or cells: purified from human red blood cells
The format is biochemical. Particulars: μ-calpain derived from human red blood cells; 30° C., 60 minutes; read-out: Enzyme inhibitory activity μ-calpain (IC50). Here is the method:
(1) Measurement of Inhibitory Activity Against μ-Calpain and m-Calpain
The inhibitory activity against μ-calpain and m-calpain was assayed according to the method described in Anal. Biochem. 1993, vol. 208, p. 387-392. That is, to 2.5 μL of a DMSO solution containing a varying concentration of the test sample in a 96-well plate was added 200 μL of a reaction solution containing 0.5 mg/mL casein, 50 mM Tris-HCl buffer (pH 7.4), 20 mM dithiothreitol and 1.0 nmol μ-calpain (derived from human red blood cells; available from Cosmo Bio Co. Ltd.) or m-calpain (derived from porcine kidney; available from Cosmo Bio Co. Ltd.). After 20 mM aqueous calcium chloride (50 μL) was added thereto, the mixture was incubated at 30° C. for 60 minutes. Then, 100 μL of the reaction solution was transferred to another 96-well plate, and purified water (50 μL) and 50% aqueous solution (100 μL) of Protein Assay Dye Reagent (available from Bio-Rad Laboratories, Inc.; catalogue No. 500-600) were added thereto. The reaction mixture was allowed to stand at room temperature for 15 minutes, and its absorbance was measured at 595 nm.
The absorbance of a reaction mixture prepared in the same manner as mentioned above, except that a DMSO solution contained no sample, was used as a control value, and that of a reaction mixture prepared in the same manner as mentioned above, except that 1 mM aqueous EDTA solution (50 μL) was used in place of 20 mM aqueous calcium chloride, was used as a blank value. […] Inhibition rate (%)={1−(measured value minus blank value)/(control value minus blank value)}×100

A word on the pIC50: it is the negative decadic logarithm of the IC50, by convention in mol/L. With `CCCNC(=O)C(=O)[C@H](Cc1ccccc1)NC(=O)[C@H](CC(C)C)NC(=O)OCCOC` [Compound 7], the pIC50 is 7.00. The same measure for `COCCNC(=O)C(=O)[C@H](Cc1ccccc1)NC(=O)[C@H](CC(C)C)NC(=O)OCCOC` [Compound 12, ((1S)-1-((((1S)-1-Benzyl-2,3-dioxo-3-(2-methoxyethylamino)propyl)amino)carbonyl)-3-methylbutyl)carbamic acid 2-methoxyethyl ester]: 6.74. Turning to `CC(C)C[C@H](NC(=O)OC1CCOCC1)C(=O)N[C@@H](Cc1ccccc1)C(=O)C(=O)NC1CC1` [Compound 6, ((1S)-1-((((1S)-1-Benzyl-3-cyclopropylamino-2,3-dioxo-propyl)amino)carbonyl)-3-methylbutyl)carbamic acid tetrahydro-4H-pyran-4-yl ester], the negative-log IC50 (pIC50) was 6.92. The same measure for `COCCOC(=O)N[C@@H](CC(C)C)C(=O)N[C@@H](Cc1ccccc1)C(=O)C(=O)NC1Cc2ccccc2C1` [Compound 11, ((1S)-1-((((1S)-1-Benzyl-2,3-dioxo-3-(2-indanylamino)propyl)amino)carbonyl)-3-methylbutyl)carbamic acid 2-methoxyethyl ester]: 6.77; for `COCCOC(=O)N[C@@H](CC(C)C)C(=O)N[C@@H](CC(C)C)C(=O)C(=O)NCCOc1ccccc1` [Compound 21, ((1S)-1-((((1S)-2,3-Dioxo-1-(2-methylpropyl)-3-(2-phenoxyethyl)aminopropyl)amino)carbonyl)-3-methylbutyl)carbamic acid 2-methoxyethyl ester]: 7.10; for `COCCOC(=O)N[C@@H](CC(C)C)C(=O)N[C@@H](CCc1ccccc1)C(=O)C(=O)NC1CC1` [Compound 15, ((1S)-1-((((1S)-2,3-Dioxo-3-cyclopropylamino-1-(phenylethyl)propyl)amino)carbonyl)-3-methylbutyl)carbamic acid 2-methoxyethyl ester]: 6.74. The same measure for `COCCOC(=O)N[C@@H](CC(C)C)C(=O)N[C@@H](Cc1ccccc1)C(=O)C(=O)NCC(F)(F)F` [Compound 10, ((1S)-1-((((1S)-1-Benzyl-2,3-dioxo-3-(2,2,2-trifluoroethylamino)propyl)amino)carbonyl)-3-methylbutyl)carbamic acid 2-methoxyethyl ester]: 6.35.

For `CC(C)C[C@H](NC(=O)OCCc1ccccn1)C(=O)N[C@@H](Cc1ccccc1)C(=O)C(=O)NC1CC1` [Compound 24, ((1S)-1-((((1S)-1-benzyl-3-(cyclopropylamino)-2,3-dioxo-propyl)amino)carbonyl)-3-methylbutyl)carbamic acid 2-(pyridin-2-yl)ethyl ester], the negative-log IC50 (pIC50) was 7.54. The same measure for `CC(C)C[C@H](NC(=O)O[C@H]1CCOC1)C(=O)N[C@@H](CCc1ccccc1)C(=O)C(=O)NC1CC1` [Compound 16, ((1S)-1-((((1S)-2,3-Dioxo-3-cyclopropylamino-1-(phenylethyl)propyl)amino)carbonyl)-3-methylbutyl)carbamic acid (3S)-tetrahydro-furan-3-yl ester]: 6.85. The same measure for `CC(C)C[C@H](NC(=O)O[C@H]1CCOC1)C(=O)N[C@@H](Cc1ccccc1)C(=O)C(=O)NC1CC1` [Compound 5, ((1S)-1-((((1S)-1-Benzyl-3-(cyclopropylamino)-2,3-dioxo-propyl)amino)carbonyl)-3-methylbutyl)carbamic acid (3S)-tetrahydrofuran-3-yl ester]: 7.05; for `CCNC(=O)C(=O)[C@H](CCc1ccccc1)NC(=O)[C@H](CC(C)C)NC(=O)OCCOC` [Compound 13, ((1S)-1-((((1S)-2,3-Dioxo-3-ethylamino-1-(phenylethyl)propyl)amino)carbonyl)-3-methylbutyl)carbamic acid 2-methoxyethyl ester]: 6.52.

On to `CCNC(=O)C(=O)[C@H](Cc1ccccc1)NC(=O)[C@H](CC(C)C)NC(=O)OC1CCOCC1` [Compound 3, ((1S)-1-((((1S)-1-Benzyl-2,3-dioxo-3-(ethylamino)propyl)amino)carbonyl)-3-methylbutyl)carbamic acid tetrahydro-4H-pyran-4-yl ester], for which the pIC50 is 6.60.

Source of the values: patent US7491705B2, “Alpha-ketoamide derivative, and production method and use thereof” (Senju Pharmaceutical Co., Ltd., priority 2003, dated 2009).
